{"source": "patent US12629406B2", "about": "“Alterations in endothelin receptors following hemorrhage and resuscitation by centhaquin” (MIDWESTERN UNIVERSITY, priority 2018, dated 2026)", "key": {"[1]": {"test_system": "IL-10", "test": "Plasma IL-10 in hemorrhaged rats (ELISA)", "conditions": "rat, in vivo", "method": "(§1) Induction of Hemorrhagic Shock. Hemorrhage was induced by withdrawing blood from the femoral artery at a rate of approximately 0.5 to 1 mL/min until a MAP of 35 mmHg was reached. This MAP was maintained for 30 min by further withdrawal of blood, if necessary. The hemorrhagic shock model used in the present study is a well-established rodent model of manageable pressure hemorrhage (Buehler et al. 2000; Gulati et al. 1997a; Gulati and Sen 1998). The volume of blood loss was about approximately 8.0 ml in each rat and was similar in various groups, amounting to approximately 40% of the total blood. Measured hematocrit levels were similar in various groups. The duration of blood withdrawal was approximately 15 minutes.\nExperimental design. […] The blood samples, for biochemical estimations, were collected at 30 minutes of resuscitation and cardiovascular parameters were monitored till 60 minutes after which the animal was sacrificed. […]"}, "[2]": {"test_system": "ETA receptors", "test": "ETA receptor expression in tissues of hemorrhaged rats (western blot)", "assay_type": "in vivo, rat", "conditions": "for change in ETA receptor expression, abdominal aorta: compared to hemorrhaged rats with no treatment; for change in ETA receptor expression, renal medulla: compared to hemorrhagic shock", "method": "as §1\nExperimental design. To determine the resuscitative effect of centhaquin on cardiovascular system and plasma cytokines in hemorrhagic shock, rats were randomly divided into five groups, Group 1: Sham control (Non-hemorrhaged) (n=5), Group 2: Hemorrhage with no resuscitation (n=5); Group 3: Hemorrhage followed by resuscitation with 3% hypertonic saline (vehicle) (n=5); Group 4: Hemorrhage followed by resuscitation with vehicle plus centhaquin (0.017 mg/kg) (n=5); and Group 5: Hemorrhage followed by resuscitation with vehicle plus centhaquin (0.05 mg/kg) (n=5). Resuscitation was started 30 min after induction of hemorrhagic shock as an intravenous infusion (1 mL/min) through femoral vein using an infusion pump (Harvard Apparatus Infusion/Withdrawal Pump, Millis, MA). The blood samples, for biochemical estimations, were collected at 30 minutes of resuscitation and cardiovascular parameters were monitored till 60 minutes after which the animal was sacrificed. The volume of resuscitative solution was kept equal to the volume of blood loss.\nEstimation of ETA and ETB receptor expression. Expression of ETA and ETB receptors was determined using the western blotting technique (Briyal et al. 2015; Leonard and Gulati 2013) with some modifications. After completion of cardiovascular experiments animals were sacrificed and the organs (brain, heart, liver, lung, kidney and abdominal aorta) were immediately dissected out, flash frozen on dry ice, and stored at −80° C. for further analysis. The tissue was homogenized with 10×(w/v) RIPA lysis buffer (20 mM Tris-HCl pH 7.5, 120 mM NaCl, 1.0% TritonX-100, 1.0% sodium deoxycholate, 0.1% sodium dodecyl sulfate (SDS), 10% glycerol, 1 mM disodium ethylene diamine tetraacetic acid (EDTA), 1 mM ethylene glycol-bis(β-aminoethyl ether)-N,N,N′,N′-tetraacetic acid tetrasodium salt (EGTA), phosphatase inhibitors and Complete Mini Protease inhibitor cocktail tablet (Roche Diagnostics, Indianapolis, IN). Proteins were isolated in solubilized form and concentrations were measured by Folin-Ciocalteu's phenol reagent (Lowry et al. 1951). Solubilized protein (60 μg) was denatured in Laemmli sample buffer (Bio-Rad Laboratories, Hercules, CA), resolved on 10% sodium dodecyl sulfate-polyacrylamide gel electrophoresis (SDS-PAGE) and then transferred onto the nitrocellulose membrane followed by blocking the membrane with SuperBlock® Blocking Buffer in tris-buffered saline (TBS) (ThermoFisher Scientific, Hanover Park, IL). The membranes were washed three times with 1×TBS-Tween (TBST) and incubated with rabbit polyclonal anti-ETA receptor (ab85163, Abcam, Cambridge, MA, 1:1000) or anti-ETB receptor (ab117529, Abcam, Cambridge, MA, 1:1000) or mouse monoclonal anti-β-actin (a1978, Sigma-Aldrich, St. Louis, MO) antibodies, followed by horseradish peroxidase (HRP)-conjugated secondary antibodies goat anti-rabbit (sc2004, Santa Cruz Biotechnology, Dallas, TX, 1:2000) or goat anti-mouse (ab98693, Abcam, Cambridge, MA, 1:10,000) and visualized by SuperSignal® West Pico Chemiluminescent Substrate (ThermoFisher Scientific, Hanover Park, IL) using the ChemiDoc™ MP Imaging System (Bio-Rad Laboratories, Hercules, CA) and then analyzed using ImageJ (NIH) software."}}}
{"smiles": "Cc1cccc(N2CCN(CCc3ccc4ccccc4n3)CC2)c1", "note": "[centhaquin, 2-[2-(4-(3-methyphenyl)-1-piperazinyl)]ethyl-quinoline]", "values": [{"measurement": "plasma IL-10, hemorrhagic shock versus resuscitation with hypertonic saline or centhaquin", "setting": "[1]", "result": "no statistically significant difference"}, {"measurement": "change in ETA receptor expression, abdominal aorta", "setting": "[2]; centhaquin 0.017 mg/kg", "result": "−47.6", "unit": "%"}, {"measurement": "change in ETA receptor expression, renal medulla", "setting": "[2]; centhaquin 0.017 mg/kg", "result": "−61.3", "unit": "%"}, {"measurement": "change in ETA receptor expression, abdominal aorta", "setting": "[2]; centhaquin 0.05 mg/kg", "result": "−49.2", "unit": "%"}, {"measurement": "change in ETA receptor expression, renal medulla", "setting": "[2]; centhaquin 0.05 mg/kg", "result": "−70.5", "unit": "%"}, {"measurement": "change in ETA expression, renal medulla (summary)", "setting": "[2]; dose not given", "result": "−61", "unit": "%"}, {"measurement": "ETA receptor expression in brain, heart, liver, lungs and kidney cortex", "setting": "[2]; hemorrhage and resuscitation", "result": "no change"}, {"measurement": "shock-induced increase (140%) in ETA expression, abdominal aorta", "setting": "[2]; summary, also attenuated by saline", "result": "attenuated"}]}
